Measured values as given in patent US20150283159A1, “ANTICANCER AGENT, AND COMBINATION USE ANTICANCER AGENT” (Microbial Chemistry Research Foundation, priority 2012, published 2015).
In brackets after ≈: the same amount, converted by molar mass.

Legend:
[1] = system: Human lung cancer NCI-H460 cells; assay: In vitro cell proliferation suppressive activity (MTT method); type: cell-based; settings: 3 days culture; for IC50: Homo sapiens, 72 h, read-out: IC50 (concentration at which 50% of the cell proliferation was suppressed), NCI-H460 cells
Experimental: (§1) Proliferation suppressive activities of ellagitannin against various kinds of cancer cell lines were measured in the following manner.
(§2) Each of the following cancer cell lines was placed in a 96-well plate at 5×10^3 cell/100 μL per well using a DMEM medium (product of NISSUI PHARMACEUTICAL CO., LTD.) containing FBS (product of Sigma-Aldrich Co.) in an amount of 10 liquid amount %, and was cultured for 24 hours at 37° C. in an atmosphere of 5% CO2, whereby the cells were allowed to adhere to the plate completely.
(§3) Each of the following ellagitannins was added thereto so as to have final concentrations of 100 μg/mL, 50 μg/mL, 25 μg/mL, 12.5 μg/mL, 6.25 μg/mL, 3.13 μg/mL, 1.56 μg/mL, and 0.78 μg/mL, followed by culturing for 3 days at 37° C. in an atomosphere of 5% CO2.
(§4) In addition, as comparative controls, the 96-well plates to which the cancer cells had been allowed to adhere were cultured for 3 days at 37° C. in an atomosphere of 5% CO2 without addition of ellagitannin.
(§5) After the culturing for 3 days, cell proliferation was measured using the MTT method. The MTT method was performed as follows. Specifically, 10 μL of an MTT solution (a PBS solution containing MTT (3-(4,5-dimethylthiazol-2-yl)-2,5-diphenyltetrazolium bromide) at a concentration of 5 mg/mL) was added to each well and cultured for 4 hours. The formed formazan products were dissolved by adding 100 μL of a 20% SDS solution to each well, and measured for absorbance at 570 nm using LABSYSTEMS MULTISCAN MS (product of DS Pharma Biomedical Co., Ltd.).
(§6) The absorbance of the system involving the addition of the ellagitannin was indicated as “A” and the absorbance of the system of the comparative controls was indicated as “B”, and cell proliferation inhibitory rate (%) was calculated from the following formula (1).
(§7) Cell proliferation inhibitory rate(%)={(B−A)/B}×100 Formula (1)
(§8) Next, the cell proliferation inhibitory rate was used to determine a concentration at which 50% of the cell proliferation was suppressed (IC50 value).

[2] = system: Human osteosarcoma SJSA-1 cells; assay: as above; type: cell-based; settings: 3 days culture; for IC50: Homo sapiens, 72 h, read-out: IC50 (concentration at which 50% of the cell proliferation was suppressed), SJSA-1 cells
Experimental: as §1, §2, §3, §4, §5, §6, §7, §8

[3] = system: human osteosarcoma SJSA-1 cells; assay: Antitumor activity-2 in cancer cell-transplanted mice (Test Example 2-2); type: in vivo, mouse; settings: nude mice transplanted with SJSA-1 cells; 12.5, 6.25 or 3.13 mg/kg, tail vein, twice a week; FIG. 3
Excerpt: Eugeniin (product of […] Science Co., Ltd.) was used as the ellagitannin and was studied for antitumor activity in the following manner.

[4] = system: human lung cancer NCI-H460 cells; assay: Antitumor activity-1 in cancer cell-transplanted mice (Test Example 2-1); type: in vivo, mouse; settings: nude mice transplanted with NCI-H460 cells; 12.5 mg/kg, tail vein, twice a week from one week after transplantation; FIG. 2
Experimental: (§9) The antitumor effect of the geraniin was evaluated by observing the proliferation state of the tumor after the transplantation of the cells. Specifically, a longer diameter and a shorter diameter of each tumor were meatured with a caliper, and a tumor volume was measured from the following formula (2). Its average and standard deviation were obtained to determine the effect in the geraniin-administration groups in comparison to the comparative control groups.
(§10) Tumore volume=longer diameter×(shorter diameter)^2÷2 Formula (2)

[5] = system: human osteosarcoma SJSA-1 cells; assay: as above; type: in vivo, mouse; settings: nude mice transplanted with SJSA-1 cells; 12.5 mg/kg, tail vein, twice a week from one week after transplantation; FIG. 1
Experimental: as §9, §10

Row | Molecule | IC50 [1] [µg/mL] | IC50 [2] [µg/mL] | tumor volume compared with the comparative control group (Saline) [3] | tumor volume compared with the comparative control group (Saline) [4] | tumor volume compared with the comparative control group (Saline) [5] | IC50 (concentration at which 50% of the cell proliferation was suppressed), NCI-H460 cells [1] [µg/mL] | IC50 (concentration at which 50% of the cell proliferation was suppressed), SJSA-1 cells [2] [µg/mL]
1 | O=C(OC1OC2COC(=O)c3cc(O)c(O)c(O)c3-c3c(cc(O)c(O)c3O)C(=O)OC2C(OC(=O)c2cc(O)c(O)c(O)c2)C1O)c1cc(O)c(O)c(O)c1 (stereo not drawn) [1,3-di-O-galloyl-4,6-O-hexahydroxydiphenoyl glucose] | 11 (≈ 14 µM) | 41 (≈ 52.1 µM) | – | – | – | – | –
2 | O=C(O[C@@H]1O[C@@H]2COC(=O)c3cc(O)c(O)c(O)c3-c3c(cc(O)c(O)c3O)C(=O)O[C@H]2[C@H](OC(=O)c2cc(O)c(O)c(O)c2)[C@H]1OC(=O)c1cc(O)c(O)c(O)c1)c1cc(O)c(O)c(O)c1 [Eugeniin, eugeniin] | 5.6 (≈ 5.97 µM) | 18 (≈ 19.2 µM) | significantly smaller | – | – | – | –
3 | O=C1O[C@H]2[C@@H]3OC(=O)c4cc(O)c(O)c(O)c4-c4c(cc(O)c(O)c4O)C(=O)OC[C@H]2O[C@@H](OC(=O)c2cc(O)c(O)c(O)c2)[C@@H]3OC(=O)c2cc(O)c(O)c3c2[C@@H]2C1=CC(=O)[C@](O)(O3)C2(O)O [Geraniin, geraniin] | 40 (≈ 42 µM) | 100 (≈ 105 µM) | – | significantly smaller | significantly smaller | – | –
4 | O=C(OC1OC2COC(=O)c3cc(O)c(O)c(O)c3-c3c(cc(O)c(O)c3O)C(=O)OC2C(O)C1O)c1cc(O)c(O)c(O)c1 (stereo not drawn) [Strictinin, strictinin] | 33 (≈ 52 µM) | ≥ 110 | – | – | – | – | –
5 | O=C(OC1C(O)OC2COC(=O)c3cc(O)c(O)c(O)c3-c3c(cc(O)c(O)c3O)C(=O)OC2C1OC(=O)c1cc(O)c(O)c(O)c1)c1cc(O)c(O)c(O)c1 (stereo not drawn) [Tellimagrandin I, tellimagrandin I] | 32 (≈ 40.7 µM) | 46 (≈ 58.5 µM) | – | – | – | – | –
6 | casuarictin | – | – | – | – | – | 35 | 61
